Assays:
FAAH [1] = molecular target: T1, FAAH (Rattus norvegicus, UniProt P97612); assay: FAAH activity in rat brain membrane (RBM) homogenate, 3H-anandamide hydrolysis; format: biochemical; conditions: 10 min at 37° C., pH 6.5
T1 construct: FAAH activity was assayed in the respective homogenates (Rat brain or Human brain); from tissue; host or cells: rat brain membrane homogenate (Charles River CD strain)
T1 sequence (P97612 1-579): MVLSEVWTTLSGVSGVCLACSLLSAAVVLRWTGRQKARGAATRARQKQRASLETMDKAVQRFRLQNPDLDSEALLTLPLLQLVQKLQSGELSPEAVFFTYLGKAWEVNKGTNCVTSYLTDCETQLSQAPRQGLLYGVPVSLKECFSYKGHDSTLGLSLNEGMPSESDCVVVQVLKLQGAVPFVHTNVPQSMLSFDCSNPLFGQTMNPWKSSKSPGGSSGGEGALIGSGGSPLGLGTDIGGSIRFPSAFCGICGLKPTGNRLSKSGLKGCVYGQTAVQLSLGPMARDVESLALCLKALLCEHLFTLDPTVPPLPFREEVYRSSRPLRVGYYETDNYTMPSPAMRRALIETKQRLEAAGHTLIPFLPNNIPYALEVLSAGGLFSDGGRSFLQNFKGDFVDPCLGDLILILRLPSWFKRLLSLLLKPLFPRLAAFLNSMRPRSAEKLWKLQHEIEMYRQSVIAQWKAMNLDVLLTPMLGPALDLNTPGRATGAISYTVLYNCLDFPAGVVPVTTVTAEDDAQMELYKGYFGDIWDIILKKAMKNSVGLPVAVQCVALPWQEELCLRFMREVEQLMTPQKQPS
Protocol: (§1) To assess FAAH inhibition, compounds were tested in an assay using rat brain microsomes and an assay using human brain microsomes using the methods described below.
Nine adult rats (Charles River CD strain, female, 200 g) were anaesthetized with isofluorane and rapidly decapitated. Each brain was quickly removed and chilled in tubes (3 brains per tube) on ice. Total wet weight of the 9 brains was ˜18 g. 25 mL of homogenization buffer (20 mM HEPES buffer, pH 7.0, with 1 mM MgCl2) was added to each tube. The brains were homogenized on ice for 1 minute using an Omni GLH homogenizer (Omni International, Marietta, Ga.). The homogenates were transferred to three centrifuge tubes and centrifuged at 36,500 g for 20 minutes at 4° C. The supernatant was discarded and each pellet was re-suspended in 25 ml homogenization buffer. The resuspended material was again centrifuged (36,500g, 20 min at 4° C.). The pellets were combined by resuspension in 10 mL of homogenization buffer and incubated in a 37° C. water bath for 15 min. The tube was then placed on ice for 5 min followed by centrifugation at 36,500 g for 20 minutes at 4° C. The supernatant was discarded and the membrane pellet was then resuspended in 40 mL of resuspension buffer (50 mM Tris-HCl buffer, pH 7.4, containing 1 mM EDTA and 3 mM MgCl2). A Bradford Protein assay was performed to determine protein concentration. […]
(§2) Samples were placed on ice to terminate the reactions. […] Radioactivity (corresponding to FAAH-catalyzed breakdown of ^3H-anandamide) found in aliquots (0.2 ml) of the aqueous phase was determined by liquid scintillation counting with quench correction.
(§3) The method of Wilson et al. was modified by acidifying the reaction mixtures by the addition of 10 μl of sodium phosphate solution [0.5M (pH 2.0)] after reactions were incubated at 37° C. for 10 min and chilled on ice. […] The columns were centrifuged and the eluate was counted as described by Wilson et al.

FAAH [2] = molecular target: T2, FAAH (Homo sapiens, UniProt O00519); assay: FAAH activity in human brain membrane (HBM) homogenate, 3H-anandamide hydrolysis; format: biochemical; conditions: 10 min at 37° C., pH 6.5
T2 construct: FAAH activity was assayed in the respective homogenates (Rat brain or Human brain); tissue Analytical Biological Services (ABS), Inc; host or cells: human brain cortex membrane homogenate, pooled from three donors
T2 sequence (O00519 1-579): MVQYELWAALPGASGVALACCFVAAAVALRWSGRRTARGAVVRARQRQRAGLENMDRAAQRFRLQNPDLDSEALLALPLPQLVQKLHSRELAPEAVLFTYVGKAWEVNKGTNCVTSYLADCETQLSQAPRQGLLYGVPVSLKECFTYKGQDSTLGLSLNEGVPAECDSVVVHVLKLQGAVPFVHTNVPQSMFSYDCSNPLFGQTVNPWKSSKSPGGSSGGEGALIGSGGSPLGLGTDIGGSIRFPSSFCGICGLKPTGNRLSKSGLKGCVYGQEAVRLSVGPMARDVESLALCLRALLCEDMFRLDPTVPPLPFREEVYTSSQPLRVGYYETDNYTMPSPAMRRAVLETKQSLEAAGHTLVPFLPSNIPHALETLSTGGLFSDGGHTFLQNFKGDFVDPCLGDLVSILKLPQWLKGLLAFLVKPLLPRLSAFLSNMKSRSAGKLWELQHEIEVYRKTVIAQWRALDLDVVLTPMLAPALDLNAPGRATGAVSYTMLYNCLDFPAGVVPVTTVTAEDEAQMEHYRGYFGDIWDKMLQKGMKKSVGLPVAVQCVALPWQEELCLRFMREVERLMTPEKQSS
Protocol: as §1
10 g of normal human brain cortex tissue pooled from three donors was purchased from Analytical Biological Services (ABS), Inc. (Wilmington, Del.). The tissue had been collected by ABS, Inc. ˜4 hrs post mortem and was flash frozen and stored at −80° C. The brain tissue was thawed and transferred to a large ceramic mortar on ice. 50 mL of ice-cold homogenization buffer (20 mM HEPES buffer, pH 7.0, with 1 mM MgCl2) was added to the mortar and the tissue was homogenized with a pestle. The homogenate was centrifuged at 36,500 g for 20 minutes at 4° C. The supernatants were discarded and the pellets re-suspended in homogenization buffer and centrifuged as before. The supernatants were again discarded and the pellets were re-suspended in 30 ml homogenization buffer and incubated in a 37° C. water bath for 20 min. The homogenate was then centrifuged as before. The supernatant was discarded and the membrane pellets were re-suspended in 30 ml resuspension buffer (50 mM Tris-HCl buffer, pH 7.4, containing 1 mM EDTA and 3 mM MgCl2). A Bradford Protein assay was performed to determine protein concentration. The protein suspension was aliquotted into screw cap Cryo tubes each containing ˜200 μL of suspension, flash frozen in liquid nitrogen and stored at −80° C. until used for the assay.
as §2, §3

IC50 (FAAH [1]) [µM] | IC50 (FAAH [2]) [µM] | SMILES
167 |  | Cc1ccc(-c2cc(C(F)(F)F)nn2-c2ccc(S(N)(=O)=O)cc2)cc1 [Celecoxib, 4-[[5-(p-tolyl)-3-(trifluoromethyl)-1H-pyrazol-1-yl]]benzenesulfonamide]
280 | 41 | Cc1onc(-c2ccccc2)c1-c1ccc(S(N)(=O)=O)cc1 [Valdecoxib, 4-(5-methyl-3-phenyl-isoxazol-4-yl)benzenesulfonamide]
 | 96 | COc1ccc2c(c1)c(CC(=O)O)c(C)n2C(=O)c1ccc(Cl)cc1 [Indomethacin]
452 | 198 | CS(=O)(=O)c1ccc(C2=C(c3ccccc3)C(=O)OC2)cc1 [Rofecoxib]

Source: patent publication US20060167075A1, “Modulators of FAAH” (priority 2005, published 2006)
